# Columns and labels:
# Assay type in all cases: in vivo
# [1] = tested on: barnyardgrass (Echinochloa crus-galli); test: Test B flooded paddy; details: Echinochloa crus-galli, 336 h; 250 g ai/ha, Flood, 13 to 15 days, scale 0 (no effect) to 100 (complete control); read-out: Plant response rating, Barnyardgrass
# Procedure, shortened: (§1)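 Flooded 3 cm over soil; compound into paddy water; depth kept constant. Greenhouse 13–15 d.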
# [2] = tested on: ducksalad (Heteranthera limosa); test: Test B flooded paddy; details: Heteranthera limosa, 336 h; 250 g ai/ha, Flood, 13 to 15 days, scale 0 (no effect) to 100 (complete control); read-out: Plant response rating, Ducksalad
# Procedure, shortened: as §1
# [3] = tested on: rice (Oryza sativa); test: Test B flooded paddy; details: Oryza sativa, 336 h; 250 g ai/ha, Flood, 13 to 15 days, scale 0 (no effect) to 100 (complete control); read-out: Plant response rating, Rice
# Procedure, shortened: as §1
# [4] = tested on: sedge, umbrella (small-flower umbrella sedge, Cyperus difformis); test: Test B flooded paddy; details: Cyperus difformis, 336 h; 250 g ai/ha, Flood, 13 to 15 days, scale 0 (no effect) to 100 (complete control); read-out: Plant response rating, Sedge, Umbrella
# Procedure, shortened: as §1
# [5] = tested on: Italian ryegrass (Lolium multiflorum); test: Test A preemergence; details: Lolium multiflorum, pre-emergence, 240 h, 0 to 100 scale (0 no effect, 100 complete control), read-out: Ryegrass, Italian plant response rating
# Procedure, shortened: (§2)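 Injury scores run from 0, no effect, to 100, complete control, judged by eye against untreated plants roughly 10 days after treatment. Chemicals carried a surfactant in a non-phytotoxic solvent and went onto loam–sand soil preemergence or onto one- to two-leaf seedlings postemergence.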
# [6] = tested on: barnyardgrass (Echinochloa crus-galli); test: Test A preemergence; details: Echinochloa crus-galli, pre-emergence, 240 h
# Procedure, shortened: as §2
# [7] = tested on: giant foxtail (Setaria faberii); test: Test A preemergence; details: Setaria faberi, pre-emergence, 240 h, 0 to 100 scale (0 no effect, 100 complete control), read-out: Foxtail, Giant plant response rating
# Procedure, shortened: as §2
# [8] = tested on: kochia (Kochia scoparia); test: Test A preemergence; details: Bassia scoparia, pre-emergence, 240 h, 0 to 100 scale (0 no effect, 100 complete control), read-out: Kochia plant response rating
# Procedure, shortened: as §2
# [9] = tested on: pigweed (Amaranthus retroflexus); test: Test A preemergence; details: Amaranthus retroflexus, pre-emergence, 240 h, 0 to 100 scale (0 no effect, 100 complete control), read-out: Pigweed plant response rating
# Procedure, shortened: as §2
# [10] = tested on: ragweed (common ragweed, Ambrosia elatior); test: Test A preemergence; details: Ambrosia artemisiifolia, pre-emergence, 240 h, 0 to 100 scale (0 no effect, 100 complete control), read-out: Ragweed plant response rating
# Procedure, shortened: as §2
# [11] = tested on: Italian ryegrass (Lolium multiflorum); test: Test A postemergence; details: Lolium multiflorum, post-emergence, 240 h, 0 to 100 scale, read-out: Plant response rating, Ryegrass, Italian
# Procedure, shortened: as §2
# [12] = tested on: barnyardgrass (Echinochloa crus-galli); test: Test A postemergence; details: Echinochloa crus-galli, post-emergence, 240 h, 0 to 100 scale, read-out: Plant response rating, Barnyardgrass
# Procedure, shortened: as §2
# [13] = tested on: blackgrass (Alopecurus myosuroides); test: Test A postemergence; details: Alopecurus myosuroides, post-emergence, 240 h, 0 to 100 scale, read-out: Plant response rating, Blackgrass
# Procedure, shortened: as §2
# [14] = tested on: corn (Zea mays); test: Test A postemergence; details: Zea mays, post-emergence, 240 h, 0 to 100 scale
# Procedure, shortened: as §2
# [15] = tested on: galium (catchweed bedstraw, Galium aparine); test: Test A postemergence; details: Galium, post-emergence, 240 h, 0 to 100 scale, read-out: Plant response rating, Galium
# Procedure, shortened: as §2
# [16] = tested on: giant foxtail (Setaria faberii); test: Test A postemergence; details: Setaria faberi, post-emergence, 240 h, 0 to 100 scale, read-out: Plant response rating, Foxtail, Giant
# Procedure, shortened: as §2
# [17] = tested on: kochia (Kochia scoparia); test: Test A postemergence; details: Bassia scoparia, post-emergence, 240 h, 0 to 100 scale, read-out: Plant response rating, Kochia
# Procedure, shortened: as §2
# [18] = tested on: pigweed (Amaranthus retroflexus); test: Test A postemergence; details: Amaranthus retroflexus, post-emergence, 240 h, 0 to 100 scale, read-out: Plant response rating, Pigweed
# Procedure, shortened: as §2
# [19] = tested on: ragweed (common ragweed, Ambrosia elatior); test: Test A postemergence; details: Ambrosia artemisiifolia, post-emergence, 240 h, 0 to 100 scale, read-out: Plant response rating, Ragweed
# Procedure, shortened: as §2
# [20] = tested on: wheat (Triticum aestivum); test: Test A postemergence; details: Triticum aestivum, post-emergence, 240 h, 0 to 100 scale, read-out: Plant response rating, Wheat
# Procedure, shortened: as §2
# [21] = tested on: galium (catchweed bedstraw, Galium aparine); test: Test C preemergence; details: Galium, pre-emergence, 336 h, scale 0 to 100, read-out: Plant response rating, Galium
# Procedure, shortened: (§3)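 After preemergence treatment of seeds in loam-sand soil or foliar treatment at the 1- to 4-leaf stage of plants in peat/vermiculite medium, pots were kept 13-15 days in the greenhouse. Each was then scored visually, 0 meaning no effect and 100 complete control.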
# [22] = tested on: lambsquarters (Chenopodium album); test: Test C preemergence; details: Chenopodium album, pre-emergence, 336 h, scale 0 to 100, read-out: Plant response rating, Lambsquarters
# Procedure, shortened: as §3
# [23] = tested on: yellow nutsedge (Cyperus esculentus); test: Test C preemergence; details: Cyperus, pre-emergence, 336 h, scale 0 to 100, read-out: Plant response rating, Nutsedge, Yellow
# Procedure, shortened: as §3
smiles,measurement,setting,value
"Fc1ccc(F)c(Oc2ncc(Cl)cn2)c1Oc1ncc(Cl)cn1 [Compound 34, 2,2′-[(3,6-difluoro-1,2-phenylene)bis(oxy)]bis[5-chloropyrimidine]]",pest or weed control at 250 g/ha,[1],0%
same,pest or weed control at 250 g/ha,[2],30%
same,plant injury at 250 g/ha,[3],0%
same,pest or weed control at 250 g/ha,[4],30%
same,pest or weed control at 31 g/ha,[5]; 31 g ai/ha,0%
same,pest or weed control at 125 g/ha,[5]; 125 g ai/ha,50%
same,pest or weed control at 31 g/ha,"[6]; 31 g ai/ha, 0 to 100 scale (0 no effect, 100 complete control), read-out: Barnyardgrass plant response rating",10%
same,pest or weed control at 125 g/ha,"[6]; 125 g ai/ha, 0 to 100 scale, read-out: Plant response rating, Barnyardgrass",80%
same,pest or weed control at 31 g/ha,[7]; 31 g ai/ha,70%
same,pest or weed control at 125 g/ha,[7]; 125 g ai/ha,90%
same,pest or weed control at 31 g/ha,[8]; 31 g ai/ha,80%
same,pest or weed control at 125 g/ha,[8]; 125 g ai/ha,90%
same,pest or weed control at 31 g/ha,[9]; 31 g ai/ha,100%
same,pest or weed control at 125 g/ha,[9]; 125 g ai/ha,100%
same,pest or weed control at 31 g/ha,[10]; 31 g ai/ha,0%
same,pest or weed control at 125 g/ha,[10]; 125 g ai/ha,10%
same,pest or weed control at 31 g/ha,[11]; 31 g ai/ha,10%
same,pest or weed control at 125 g/ha,[11]; 125 g ai/ha,50%
same,pest or weed control at 31 g/ha,[12]; 31 g ai/ha,0%
same,pest or weed control at 125 g/ha,[12]; 125 g ai/ha,50%
same,pest or weed control at 31 g/ha,[13]; 31 g ai/ha,60%
same,pest or weed control at 125 g/ha,[13]; 125 g ai/ha,70%
same,"Corn plant response rating (crop injury, 0 = no effect, 100 = complete kill) at 31 g/ha",[14]; 31 g ai/ha,0%
same,"Corn plant response rating (crop injury, 0 = no effect, 100 = complete kill) at 125 g/ha",[14]; 125 g ai/ha,10%
same,pest or weed control at 31 g/ha,[15]; 31 g ai/ha,80%
same,pest or weed control at 125 g/ha,[15]; 125 g ai/ha,90%
same,pest or weed control at 31 g/ha,[16]; 31 g ai/ha,30%
same,pest or weed control at 125 g/ha,[16]; 125 g ai/ha,70%
same,pest or weed control at 31 g/ha,[17]; 31 g ai/ha,50%
same,pest or weed control at 125 g/ha,[17]; 125 g ai/ha,70%
same,pest or weed control at 31 g/ha,[18]; 31 g ai/ha,70%
same,pest or weed control at 125 g/ha,[18]; 125 g ai/ha,80%
same,pest or weed control at 31 g/ha,[19]; 31 g ai/ha,30%
same,pest or weed control at 125 g/ha,[19]; 125 g ai/ha,50%
same,plant injury at 31 g/ha,[20]; 31 g ai/ha,0%
same,plant injury at 125 g/ha,[20]; 125 g ai/ha,30%
same,pest or weed control at 31 g/ha,"[21]; 31 g ai/ha, preemergence",95%
same,pest or weed control at 62 g/ha,"[21]; 62 g ai/ha, preemergence",95%
same,pest or weed control at 125 g/ha,"[21]; 125 g ai/ha, preemergence",98%
same,pest or weed control at 16 g/ha,"[21]; Preemergence, 16 g ai/ha",90%
same,pest or weed control at 31 g/ha,"[22]; 31 g ai/ha, preemergence",90%
same,pest or weed control at 62 g/ha,"[22]; 62 g ai/ha, preemergence",100%
same,pest or weed control at 125 g/ha,"[22]; 125 g ai/ha, preemergence",98%
same,pest or weed control at 16 g/ha,"[22]; Preemergence, 16 g ai/ha",80%
same,pest or weed control at 31 g/ha,"[23]; 31 g ai/ha, preemergence",0%
same,pest or weed control at 62 g/ha,"[23]; 62 g ai/ha, preemergence",0%
same,pest or weed control at 125 g/ha,"[23]; 125 g ai/ha, preemergence",5%
same,pest or weed control at 16 g/ha,"[23]; Preemergence, 16 g ai/ha",0%
